Experimental findings from paper PMC6982861, “Synthesis, Structural Characterization, and Biological Activity of New Pyrazolo[4,3-e][1,2,4]triazine Acyclonucleosides” (Molecules, 2020) are described below.

Assay [1] is described as follows: […] kinase assay, P-81 phosphocellulose. The assay is classed as biochemical, Homo sapiens. The note with it: read-out: MTT Assay ^a, IC50 (μM) / K-562.
Assay [2] addresses T1, (Homo sapiens, UniProt P00519).
T1 construct: gene ABL1; Abl kinase
Put plainly: […] kinase assay, P-81 phosphocellulose. The assay is classed as biochemical.

Another assay addresses T2, CDK2/Cyclin E (Homo sapiens, UniProt P24941).
T2 construct: kinase complex; with G1/S-specific cyclin-E1
Put plainly: […] kinase assay, P-81 phosphocellulose. In kind it is biochemical.

The mark [3] stands for this setting: read-out: MTT Assay ^a, IC50 (μM) / K-562.

SMILES strings stand for the structures. Where two headings read alike, the source gives them in different places.

T1 sequence (P00519 whole entry): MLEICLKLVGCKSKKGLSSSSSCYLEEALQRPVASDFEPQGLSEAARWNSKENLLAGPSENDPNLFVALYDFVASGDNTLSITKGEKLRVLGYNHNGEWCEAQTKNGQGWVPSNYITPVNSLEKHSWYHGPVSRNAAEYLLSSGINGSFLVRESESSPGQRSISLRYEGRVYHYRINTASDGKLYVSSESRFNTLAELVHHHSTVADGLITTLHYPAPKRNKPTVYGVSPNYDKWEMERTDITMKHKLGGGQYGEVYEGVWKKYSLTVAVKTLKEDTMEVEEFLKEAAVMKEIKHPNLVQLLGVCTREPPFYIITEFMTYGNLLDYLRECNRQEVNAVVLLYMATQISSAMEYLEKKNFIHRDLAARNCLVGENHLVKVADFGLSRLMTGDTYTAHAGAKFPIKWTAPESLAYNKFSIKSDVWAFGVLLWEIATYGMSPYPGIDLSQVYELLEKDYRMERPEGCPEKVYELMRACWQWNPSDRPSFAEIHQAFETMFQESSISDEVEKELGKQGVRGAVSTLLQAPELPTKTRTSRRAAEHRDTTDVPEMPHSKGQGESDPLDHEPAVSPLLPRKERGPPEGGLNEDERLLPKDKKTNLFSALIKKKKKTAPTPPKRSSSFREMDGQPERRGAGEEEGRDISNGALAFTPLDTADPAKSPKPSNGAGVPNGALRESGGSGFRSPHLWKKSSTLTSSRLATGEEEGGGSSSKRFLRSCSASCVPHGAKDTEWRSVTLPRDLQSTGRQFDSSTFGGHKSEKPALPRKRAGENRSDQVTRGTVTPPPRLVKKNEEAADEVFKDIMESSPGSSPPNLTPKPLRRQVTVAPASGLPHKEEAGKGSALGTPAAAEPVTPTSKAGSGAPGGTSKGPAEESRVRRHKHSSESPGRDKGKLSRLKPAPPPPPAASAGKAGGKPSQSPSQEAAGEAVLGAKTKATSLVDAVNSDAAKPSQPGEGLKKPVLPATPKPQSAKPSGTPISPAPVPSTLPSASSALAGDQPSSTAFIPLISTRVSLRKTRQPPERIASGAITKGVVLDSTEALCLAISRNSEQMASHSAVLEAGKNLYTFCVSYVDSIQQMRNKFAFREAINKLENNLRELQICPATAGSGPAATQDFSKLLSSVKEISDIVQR

Consider `CSc1nnc2[nH]nc(C)c2n1` [compound 1, 3-methyl-5-methylsulfanyl-1H-pyrazolo[4,3-e][1,2,4]triazine], for which the IC50 in assay [1] and in assay [2] (setting [3]) was over 100 µM each time.
As to `CSc1nnc2c(n1)c(C)nn2CCO` [compound 2, 1-(2-hydroxyethyl)-3-methyl–5-methylsulfanyl-1H-pyrazolo[4,3-e][1,2,4]triazine], the IC50 in assay [1] and in assay [2] (setting [3]) was over 100 µM in each case.
For the compound `CSc1nnc2nn(CCO)c(C)c2n1` [compound 3, 2-(2-hydroxyethyl)-3-methyl-5-methylsulfanyl-2H-pyrazolo[4,3-e][1,2,4]triazine], the IC50 in assay [1] and in assay [2] (setting [3]) was over 100 µM throughout.
In the case of `CSc1nnc2c(n1)c(C)nn2CC(O)CO` (centres unmarked) [compound 4, 1-(2,3-dihydroxypropyl)-3-methyl–5-methylsulfanyl-1H-pyrazolo[4,3-e][1,2,4]triazine], the IC50 in assay [1] and in assay [2] (setting [3]) was over 100 µM throughout.
For `CSc1nnc2c(n1)c(C)nn2CCBr` [compound 6, 1-(2-bromoethyl)-3-methyl-5-methylsulfanyl-1H-pyrazolo[4,3-e][1,2,4]triazine], the IC50 in assay [1] and in assay [2] (setting [3]) was over 100 µM each time.
For `CCOC(=O)C(CCn1nc(C)c2nc(SC)nnc21)C(=O)OCC` [compound 7, 1-(ethyl 2-carboethoxybutanoate-4-yl)-3-methyl-5-methylsulfanyl-1H-pyrazolo[4,3-e][1,2,4]triazine], the IC50 (on CDK2/Cyclin E; in assay [2] (read-out: IC50 (μM) ^a / CDK2/Cyclin E)) was over 50 µM each time.
As to `CSc1nnc2c(n1)c(C)nn2CCC(CO)CO` [compound 8, 1-[(4-hydroxy-3-hydroxymethyl)butyl]-3-methyl-5-methylsufanyl-1H-pyrazolo[4,3-e][1,2,4]triazine], the IC50 in assay [1] and in assay [2] (setting [3]) was over 100 µM in each case.
